The record followed here is patent US7112598B2, “κ opioid receptor agonist comprising 2-phenylbenzothiazoline derivative” (Santen Pharmaceutical Co., Ltd., priority 2002, dated 2006).

Counter-ions that a name gives are not always drawn.

human κ opioid receptor, sequence (P41145 whole entry): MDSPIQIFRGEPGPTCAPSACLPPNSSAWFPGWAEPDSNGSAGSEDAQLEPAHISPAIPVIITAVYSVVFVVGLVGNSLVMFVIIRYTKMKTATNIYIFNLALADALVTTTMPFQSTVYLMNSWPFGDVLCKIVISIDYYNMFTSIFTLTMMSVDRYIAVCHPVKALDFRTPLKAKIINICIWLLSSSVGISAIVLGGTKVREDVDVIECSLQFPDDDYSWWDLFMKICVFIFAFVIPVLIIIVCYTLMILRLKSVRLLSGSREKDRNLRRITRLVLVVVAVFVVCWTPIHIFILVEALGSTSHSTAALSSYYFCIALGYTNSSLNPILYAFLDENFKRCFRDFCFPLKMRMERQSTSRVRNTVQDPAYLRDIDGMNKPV

For the first experiment, the system named is mouse acetic acid writhing. As to the kind of experiment: Antinociceptive action test by mouse acetic acid writhing method. Type of experiment: in vivo. As to conditions: 30 mg/kg oral, 20 min before 0.7% acetic acid i.p., writhing counted 10 to 20 minutes after acetic acid, vs vehicle group, average of seven samples. The protocol:
2. Antinociceptive Action Tests by Mouse Acetic Acid Writhing Method
Accordingly, antinociceptive action tests of test compounds were carried out using the mouse acetic acid writhing method, and analgesic effects of the test compounds were evaluated.
Twenty minutes after oral administration of the test compound (30 mg/kg), the 0.7% acetic acid solution was administered intraperitoneally in a rate of 0.1 ml per 10 g of mouse weight.
Inhibition rates were calculated according to the following equation.
The antinociceptive action of the test compound was expressed in an inhibition rate to writhing numbers of a vehicle group.
(In general: Writhing tests count abdominal constrictions after an irritant is injected.)
Consider `COc1ccc(OCCCN(CCO)C(C)C)c(C2Sc3ccc(Cl)cc3N2C(C)=O)c1` (stereo not shown) [Compound No. 5-3, 3-Acetyl-5-chloro-2-[2-(3-(N-(2-hydroxyethyl)-N-isopropylamino)-propoxy)-5-methoxyphenyl]benzothiazoline Hydrochloride], for which the “Inhibition rate (%)” value is on record as 51.6%.

Still in this experiment, the particulars now being: 30 mg/kg oral, 20 min before 0.7% acetic acid i.p., writhing counted 10 to 20 minutes after acetic acid, vs vehicle group, average of seven samples, Hydrochloride, 30 mg/kg.
`COc1ccc(OCCCN(CCO)C(C)C)c(C2Sc3cc(Cl)ccc3N2C(C)=O)c1` (stereo not shown) [Compound No. 3-2, 3-Acetyl-6-chloro-2-[2-(3-(N-(2-hydroxyethyl)-N-isopropylamino)-propoxy)-5-methoxyphenyl]benzothiazoline Hydrochloride]: the “Inhibition rate (%)” value is given as 76.1%.

The target of a further experiment is human κ opioid receptor (Homo sapiens, UniProt P41145). As to the kind of experiment: κ opioid receptor agonist activity test in GTP binding activity measurement system ([35S]GTPγS binding). Conditions: test compound concentration 10^−9 M; binding of 10^−6 M (−)-U50488 = 100%; human κ opioid receptor membrane preparation; average of duplicate. It counts as biochemical. The protocol:
1. κ Opioid Receptor Agonist Activity Tests in GTP Binding Activity Measurement System
Jinmin Zhu et al. reported a method of evaluating agonist activities of drugs on a κ opioid receptor wherein guanosine 5′-triphosphate (GTP) radiolabelled with a human κ opioid receptor is used in J. Pharmaco. Exp. Ter., 282, 676–684 (1997). κ opioid receptor agonist activities (actions) of test compounds were evaluated according to the method described in the above-mentioned literature.
N-2-Hydroxyethylpiperazine-N′-2-ethanesulfonic acid (HEPES, 4.77 g), magnesium chloride hexahydrate (2.03 g), sodium chloride (5.84 g), disodium […] (EDTA•2Na, 0.37 g), DL-dithiothreitol (DTT, 0.15 g) and bovine serum albumin (BSA, 1.0 g) were dissolved in ultrapure water, pH was adjusted to 7.4 with sodium hydroxide, and further ultrapure water was added to the mixture so that a total amount was one liter to prepare a incubation buffer.
Nine volume of the incubation buffer was added to one volume of dimethyl sulfoxide (DMSO) to prepare a 10% DMSO-incubation buffer.
Tris(hydroxymethyl)aminomethane hydrochloride (TRIZA-HCl, 66.1 g) and Tris(hydroxymethyl)aminomethane (TRIZA-Base, 9.7 g) were dissolved in ultrapure water so that a total amount was 10 liters to prepare a 50 mM Tris-hydrochloric acid buffer (pH 7.4).
A human κ opioid receptor membrane preparation (100 unit/ml) was diluted 60 times with the incubation buffer under ice-cold to prepare a human κ opioid receptor membrane preparation solution. The membrane preparation solution was preserved under ice-cold.
A test compound was dissolved in 100% DMSO to prepare a 10^−3 M test compound solution, and then the incubation buffer was added to the 10^−3 M test compound solution to prepare a 10^−4 M test compound solution. Next, the 10% dimethyl sulfoxide-incubation buffer was added to the 10^−4 M test compound solution to prepare a 10^−5 M, 10^−6 M, 10^−7 M, 10^−8 M or 10^−9 M test compound solution.
A drug (−)-U50488 (J. Pharmacol. Exp. Ther., 224, 7–12 (1983)), which is known as a κ opioid receptor agonist, was used as a positive control drug in the tests.
(−)-U-50488 was dissolved in 100% DMSO to prepare a 10^−3 M positive control drug solution, and then the incubation buffer was added to the 10^−3 M positive control drug solution to prepare a 10^−4 M positive control drug solution. Next, the 10% DMSO-incubation buffer was added to the 10^−4 M positive control drug solution to prepare a 10^−6 M positive control drug solution.
GDP was dissolved in ultrapure water to prepare a 10^−3 M GDP solution, and the incubation buffer was added to the 10^−3 M GDP solution to prepare a 10^−5 M GDP solution.
10^−3 M [^35S]GTPγS was diluted with the incubation buffer to prepare 10^−9 M radiolabelled reagent.
• 1. The incubation buffer (50 μl), the 10^−5 M GDP solution (50 μl), the human κ opioid receptor membrane preparation solution (300 μl), the test compound solution and the 10^−9 M radiolabelled reagent (50 μl) were put into a glass tube, and then the mixture was incubated at 30° C. for 60 minutes. • 2. The 50 mM Tris-hydrochloric acid buffer (pH 7.4) was added to the mixture to stop the reaction, the reaction mixture was suction-filtered with a GF/B filter, and then the residue on the GF/B filter was washed with the 50 mM Tris-hydrochloric acid buffer (3 ml) three times. • 3. The GF/B filter was air-dried, and then the residue on the GF/B filter was taken out with an antomatic dispenser and transfered into a vial. • 4. Scintisol EX-H (5 ml) was introduced into the vial to prepare a sample solution, and then radioactivity in the sample solution was measured with a liquid scintillation counter for one minute. The radioactivity was expressed in “cpm” (counts per minute). Calculation Formula of κ Opioid Receptor Agonist Activity
Each agonist activity of the test compound on the κ opioid receptor was expressed in [^35S]GTPγS binding % when [^35S]GTPγS binding of 10^−6 M (−)-U50488 was 100%. […]
For orientation: GTPγS is a poorly hydrolysed GTP analogue; its binding reports G protein activation.
For `COc1ccc(OCCCN(CCO)C(C)C)c(C2Sc3ccc(Cl)cc3N2C(C)=O)c1` (stereo not shown) [Compound No. 5-3, 3-Acetyl-5-chloro-2-[2-(3-(N-(2-hydroxyethyl)-N-isopropylamino)-propoxy)-5-methoxyphenyl]benzothiazoline Hydrochloride], the “[^35S]GTP γ S binding %” value stood at 51.2%.
On to `COc1ccc(OCCCN(CCO)C(C)C)c(C2Sc3ccc(C(F)(F)F)cc3N2C(C)=O)c1` (stereo not shown) [Compound No. 4-2, 3-Acetyl-2-[2-(3-(N-(2-hydroxyethyl)-N-isopropylamino)propoxy)-5-methoxyphenyl]-5-trifluoromethylbenzothiazoline Hydrochloride], for which the “[^35S]GTP γ S binding %” value was 65.1%.
Same read-out and setting: to `CCN(CCCOc1ccc(OC)cc1C1Sc2cc(Cl)ccc2N1C(C)=O)C(C)C` (single isomer, unassigned; (+)) [Compound No. 9-10, (+)-3-Acetyl-6-chloro-2-[2-(3-(N-ethyl-N-isopropylamino)propoxy)-5-methoxyphenyl]benzothiazoline Hydrochloride] belongs 116.8%; to `COc1ccc(OCCCN(CCO)CC(C)C)c(C2Sc3cc(Cl)ccc3N2C(C)=O)c1` (stereo not shown) [Compound No. 3-11, 3-Acetyl-6-chloro-2-[2-(3-(N-(2-hydroxyethyl)-N-(2-methylpropyl)-amino)propoxy)-5-methoxyphenyl]benzothiazoline Hydrochloride], 53.7%.
`COc1ccc(OCCCN(CCO)C(C)C)c(C2Sc3ccccc3N2C(C)=O)c1` (single isomer, unassigned; (+)) [Compound No. 11-3, (+)-3-Acetyl-2-[2-(3-(N-(2-hydroxyethyl)-N-isopropylamino)-propoxy)-5-methoxyphenyl]benzothiazoline Hydrochloride]: the “[^35S]GTP γ S binding %” value came to 85.1%.
The same measure, in the same setting: as for `COc1ccc(OCCCN(C)CCO)c(C2Sc3cc(Cl)ccc3N2C(C)=O)c1` (single isomer, unassigned; (+)) [Compound No. 9-16, (+)-3-Acetyl-6-chloro-2-[2-(3-(N-(2-hydroxyethyl)-N-methylamino)-propoxy)-5-methoxyphenyl]benzothiazoline Hydrochloride], the figure is 57.2%.
Same read-out and setting: to `COc1ccc(OCCCN(Cc2cccs2)C(C)C)c(C2Sc3cc(Cl)ccc3N2C(C)=O)c1` (single isomer, unassigned; (+)) [Compound No. 9-4, (+)-3-Acetyl-6-chloro-2-[2-(3-(N-isopropyl-N-(thiophen-2-ylmethyl)-amino)propoxy)-5-methoxyphenyl]benzothiazoline Hydrochloride] belongs 72.1%; to `COc1ccc(OCCCN2CC[C@H](O)C2)c(C2Sc3cc(Cl)ccc3N2C(C)=O)c1` (stereo partly drawn) [Compound No. 3-14, 3-Acetyl-6-chloro-2-[2-(3-((3S)-hydroxyazolan-1-yl)propoxy)-5-methoxyphenyl]benzothiazoline Hydrochloride], 59.8%.
Same read-out and setting: as for `COc1ccc(OCCCN2CCC[C@H]2CO)c(C2Sc3cc(Cl)ccc3N2C(C)=O)c1` (stereo partly drawn) [Compound No. 3-12, 3-Acetyl-6-chloro-2-[2-(3-((2S)-2-hydroxymethylazolan-1-yl)propoxy)-5-methoxyphenyl]benzothiazoline Hydrochloride], the figure is 75.6%; as for `COc1ccc(OCCCN(C(C)C)C(C)C)c(C2Sc3cc(Cl)ccc3N2C(C)=O)c1` (single isomer, unassigned; (+)) [Compound No. 9-11, (+)-3-Acetyl-6-chloro-2-[2-(3-(N,N-diisopropylamino)propoxy)-5-methoxyphenyl]benzothiazoline Hydrochloride], 55.0%.

Still in this experiment, the particulars now being: test compound concentration 10^−9 M; binding of 10^−6 M (−)-U50488 = 100%; human κ opioid receptor membrane preparation; average of duplicate; Hydrochloride.
`COc1ccc(OCCCN(Cc2ccco2)C(C)C)c(C2Sc3cc(Cl)ccc3N2C(C)=O)c1` (single isomer, unassigned; (+)) [Compound No. 9-5, (+)-3-Acetyl-6-chloro-2-[2-(3-(N-(furan-2-ylmethyl)-N-isopropylamino)propoxy)-5-methoxyphenyl]benzothiazoline Hydrochloride]: the “[^35S]GTP γ S binding %” value is on record as 132.5%.
Still for that read-out and setting: to `COc1ccc(OCCCN(CCO)C(C)C)c(C2Sc3cc(Cl)ccc3N2C(C)=O)c1` (stereo not shown) [Compound No. 3-2, 3-Acetyl-6-chloro-2-[2-(3-(N-(2-hydroxyethyl)-N-isopropylamino)-propoxy)-5-methoxyphenyl]benzothiazoline Hydrochloride] belongs 66.5%.
Same read-out and setting: to `COc1ccc(OCCCN(Cc2ccco2)C(C)C)c(C2Sc3cc(Cl)ccc3N2C(C)=O)c1` (stereo not shown) [Compound No. 3-38, 3-Acetyl-6-chloro-2-[2-(3-(N-(furan-2-ylmethyl)-N-isopropylamino)-propoxy)-5-methoxyphenyl]benzothiazoline Hydrochloride] belongs 58.4%.
Same read-out and setting: to `COc1ccc(OCCCN(CCO)C(C)C)c(C2Sc3cc(Cl)ccc3N2C(C)=O)c1` (single isomer, unassigned; (-)) [Compound No. 10-2, (−)-3-Acetyl-6-chloro-2-[2-(3-(N-(2-hydroxyethyl)-N-isopropylamino)-propoxy)-5-methoxyphenyl]benzothiazoline Hydrochloride] belongs 65.8%; to `COCCN(CCCOc1ccc(OC)cc1C1Sc2cc(Cl)ccc2N1C(C)=O)C(C)C.Cl` (single isomer, unassigned; (-)) [Compound No. 10-1, (−)-3-Acetyl-6-chloro-2-[2-(3-(N-isopropyl-N-(2-methoxyethyl)amino)-propoxy)-5-methoxyphenyl]benzothiazoline Hydrochloride], 50.5%; to `CCOCCN(CCCOc1ccc(OC)cc1C1Sc2cc(Cl)ccc2N1C(C)=O)C(C)C` (single isomer, unassigned; (-)) [Compound No. 10-3, (−)-3-Acetyl-6-chloro-2-[2-(3-(N-(2-ethoxyethyl)-N-isopropylamino)-propoxy)-5-methoxyphenyl]benzothiazoline Hydrochloride], 55.7%.

The same experiment, now with this note: test compound concentration 10^−9 M; binding of 10^−6 M (−)-U50488 = 100%; human κ opioid receptor membrane preparation; average of duplicate; read-out: [^35S]GTP γ S binding %.
Regarding `COCCN(CCCOc1ccc(OC)cc1C1Sc2ccccc2N1C(C)=O)C(C)C` (stereo not shown) [Compound No. 8-1, 3-Acetyl-2-[2-(3-(N-isopropyl-N-(2-methoxyethyl)amino)propoxy)-5-methoxyphenyl]benzothiazoline Hydrochloride], the activation at 0.001 µM is 103%.
